The source of these data is ChEMBL document CHEMBL4739717, “Methods of treating cartilage disorders through inhibition of clk and dyrk” (2020).

Each structure is given as a SMILES string.

The nature of experiment [1]: Effect on Wnt signaling pathway in human SW480 cells harbouring TCF/LEF luciferase reporter gene and SP5-Luc reporter gene incubated for 36 to 48 hrs by luminescence assay. The format is cell-based. (In a reporter assay the amount or activity of a reporter protein is the signal.)
The nature of experiment [2]: Inhibition of IL1-beta induced MMP3 expression levels in human chondrocytes assessed as MMP3 levels incubated for 2hrs followed by IL1-beta stimulation and measured after overnight incubation by LANCE assay. The following applies: Chondrocyte. The format is functional, cell-based. (In general: Time-resolved FRET reads energy transfer from a long-lived donor to a nearby acceptor.)

Experiment [3] deals with Dual specificity tyrosine-phosphorylation-regulated kinase 1A (Homo sapiens, UniProt Q13627). Put plainly: Inhibition of recombinant DYRK1A (unknown origin) using Ser/Thr 18 peptide as substrate incubated for 1 hr in presence of ATP by FRET assay.
Experiment [4] is described as follows: Inhibition of IL1-beta induced MMP3 expression levels in human chondrocytes assessed as MMP3 levels incubated for 2hrs followed by IL1-beta stimulation and measured after overnight incubation by LANCE assay relative to control. The format is functional, Chondrocyte.
Experiment [5] has as its target Dual specificity protein kinase CLK3 (Homo sapiens, UniProt P49761). Put plainly: Inhibition of recombinant CLK3 (unknown origin) using Ser/Thr 18 peptide as substrate incubated for 1 hr in presence of ATP by FRET assay.
Experiment [6] is described as follows: Induction of chondrogenesis in human MSC assessed as maximum activity at 300 nM incubated for 6 days by rhodamine B and Nile red staining based imaging analysis relative to control. The following applies: BMMSC, 144 h, time 6 day. The format is functional.
A short description of experiment [7]: Induction of chondrogenesis in human MSC assessed as incubated for 6 days by rhodamine B and Nile red staining based imaging analysis. The following applies: bmmsc. The format is functional.

Sequence of Dual specificity protein kinase CLK3 (P49761 whole entry): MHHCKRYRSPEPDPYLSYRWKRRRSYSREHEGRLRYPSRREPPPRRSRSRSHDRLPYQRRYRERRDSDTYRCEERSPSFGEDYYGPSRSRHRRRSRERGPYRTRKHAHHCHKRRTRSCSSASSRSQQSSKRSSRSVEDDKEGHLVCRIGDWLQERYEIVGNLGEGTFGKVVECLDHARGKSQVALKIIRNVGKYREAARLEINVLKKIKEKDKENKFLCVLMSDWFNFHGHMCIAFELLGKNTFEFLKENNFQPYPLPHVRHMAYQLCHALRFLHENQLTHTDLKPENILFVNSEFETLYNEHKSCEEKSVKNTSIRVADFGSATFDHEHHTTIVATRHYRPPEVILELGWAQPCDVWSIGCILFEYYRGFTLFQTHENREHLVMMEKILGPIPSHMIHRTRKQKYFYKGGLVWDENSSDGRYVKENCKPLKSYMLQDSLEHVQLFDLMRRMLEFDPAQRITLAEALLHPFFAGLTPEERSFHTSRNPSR

One may read the EC50 as the concentration needed to bring the measured effect to its halfway point. With `NC(=O)c1ccc(NC(=O)c2n[nH]c3ccc(-c4cncc(CN5CCCCC5)c4)cc23)cn1`, the EC50 in experiment [1] was determined as 13 nM; in experiment [2], 2220 nM; in experiment [3] it was 1 nM. Also, in experiment [4], the Imax was determined as 100%.

Turning to `CC(C)(C)C(=O)Nc1cncc(-c2ccc3[nH]nc(-c4nc5c(-c6cccnc6)cncc5[nH]4)c3c2)c1`, the EC50 in experiment [1] worked out at 85.4 nM; in experiment [2] it was 1100 nM; in experiment [3], 5 nM. The Imax in experiment [4] is 100%.

As for `Cn1cc(-c2ccc3cnc(NC(=O)c4ccnc(N5CC6CC5CN6)c4)cc3c2)cn1` (stereo unspecified), the EC50 in experiment [2] stood at 3000 nM. Further, in experiment [4], the Imax worked out at 69%.

Regarding `COc1cncc(C(=O)Nc2c[nH]nc2C(=O)Nc2ccc3c(c2)CCNC3)c1`, the EC50 in experiment [1] was 613 nM; in experiment [2] it was 342 nM; in experiment [3], 8 nM. In addition, the Imax in experiment [4] was found to be 76%.

On to `O=C(Nc1c[nH]nc1C(=O)Nc1ccc(N2CCCCC2)nc1)c1cncc(OC2CCNCC2)c1`, for which the EC50 turned out to be 662 nM in experiment [1], 3000 nM in experiment [2] and 10 nM in experiment [3]. In addition, in experiment [4], the Imax was 71%.

Regarding `Cn1ncc(-c2ccc3cnc(NC(=O)c4ccnc(N5CCOCC5)c4)cc3c2)c1CN1CCOCC1`, the EC50 in experiment [2] worked out at 3000 nM. Also, in experiment [4], the Imax is on record as 70%.

With `CN1CCC(n2cc(NC(=O)c3n[nH]c4ccc(-c5cnn(C)c5)cc34)cn2)CC1`, the values for the EC50 in experiment [1], in experiment [2] and in experiment [3] were 79 nM, 818 nM and 1 nM, respectively. Further, the Imax in experiment [4] turned out to be 100%.

Regarding `CC(C)N1CCC(n2cc(C(=O)Nc3cc4cc(-c5cn(C)nn5)ccc4cn3)cn2)CC1`, the EC50 in experiment [1] came to 32.7 nM; in experiment [2], 492 nM. Besides, in experiment [4], the Imax stood at 91%.

As for `O=C(Nc1cccnc1)c1n[nH]c2ccc(-c3cncc(CN4CCS(=O)(=O)CC4)c3)cc12`, the EC50 in experiment [1] was 210 nM; in experiment [2], 616 nM; in experiment [3], 2 nM. Further, the Imax in experiment [4] is on record as 8.6%.

In the case of `O=C(Nc1ccc(CN2CCCC2)cc1)c1n[nH]c2ccc(-c3cnn(C4CC4)c3)cc12`, the figures for the EC50 in experiment [1], in experiment [2] and in experiment [3] were 451 nM, 3000 nM and 4 nM, respectively. Also, in experiment [4], the Imax worked out at 57%.

For the compound `O=C(Nc1c[nH]nc1-c1nc2c(-c3cccc(F)c3)cccc2[nH]1)c1cccnc1`, the figures for the EC50 in experiment [1], in experiment [2] and in experiment [3] were 2.9 nM, 76.5 nM and 4 nM, respectively. The Imax in experiment [4] stood at 100%.

In general, Emax refers to the size of the effect at its maximum, as opposed to the concentration needed. With `Cn1cc(-c2cnc3[nH]nc(-c4cc5cccnc5[nH]4)c3c2)cn1`, the 50% effective concentration (EC50) in experiment [1] was > 10000 nM; in experiment [5], > 10000 nM; in experiment [3], 8 nM; in experiment [7], 300 nM. The Emax at 0.3 µM in experiment [6] was determined as 51.7%.

In the case of `CN1CCN(c2ccnc3[nH]c(-c4n[nH]c5ccc(-c6cn[nH]c6)nc45)cc23)CC1`, the EC50 in experiment [1] was > 10000 nM; in experiment [5] it was > 10000 nM; in experiment [3] it was 49 nM; in experiment [7] it was 300 nM. In addition, the Emax at 0.3 µM in experiment [6] is 60.1%.

For the compound `O=C(Nc1cc2cc(-c3cncc(CN4CCC(O)CC4)c3)ccc2cn1)c1ccc(F)cc1`, the EC50 in experiment [1] was 382 nM; in experiment [2], 2.9 nM. The Imax in experiment [4] was 3.7%.

For the compound `CN1CCC(Nc2ccc(NC(=O)c3n[nH]c4cc(F)c(-c5cnn(C)c5)cc34)cn2)CC1`, the EC50 in experiment [1] was 230 nM; in experiment [2], 1160 nM; in experiment [3] it was 2 nM. The Imax in experiment [4] was determined as 100%.

Take `Cc1ccncc1-c1ccc2[nH]nc(-c3cc4c(-c5ccncc5)ccnc4[nH]3)c2n1`: the EC50 in experiment [1] was > 10000 nM; in experiment [5], > 10000 nM; in experiment [3], 66 nM; in experiment [7], 300 nM. For the same compound, the Emax at 0.3 µM in experiment [6] was found to be 56.5%.

Regarding `Cn1cc(-c2ccc3cnc(NC(=O)c4ccnc(OC5CNC5)c4)cc3c2)cn1`, the EC50 in experiment [2] was determined as 154 nM. In addition, the Imax in experiment [4] is listed as 100%.

On to `CN(C)C1CN(c2ncc(C(=O)Nc3cc4cc(-c5cnn(C)c5)ccc4cn3)s2)C1`, for which the EC50 in experiment [1] was found to be 1320 nM; in experiment [2], 71.4 nM. Moreover, the Imax in experiment [4] was 0%.
